# Reference: patent publication US20230047788A1, “COMPOSITIONS COMPRISING 5-CHOLESTEN-3, 25-DIOL, 3-SULFATE (25HC3S) OR PHARMACEUTICALLY ACCEPTABLE SALT THEREOF AND AT LEAST ONE CYCLIC OLIGOSACCHARIDE” (Virginia Commonwealth University, priority 2016, published 2023)
# Where “and” joins values, the source holds several entries; their conditions need not be identical. Equal values may be shown once.
# Tests used:
# [1] = test system: CLP surgery-induced sepsis model; test: Survival in rodent model of surgically-induced sepsis (cecum ligation puncture); assay type: in vivo, CD rats; details: 30 mg/kg sc within 30 minutes after surgery, end of study (3 days or 72 hours), N=5
# Protocol: The subjects for the study were 10 male CD rats (12-13 weeks of age, 400-450 g).
# A solution formulation of 25HC3S sodium salt and its respective vehicle was used for the study. The Vehicle was a solution of 40 mg/mL hydroxypropyl betadex with 10 mM sodium phosphate buffer in 70% (v/v) of 0.9% (w/v) sodium chloride and 30% (v/v) of sterile water. 25HC3S sodium salt was pre-dissolved into the Vehicle solution to result in a drug concentration of 5 mg/mL. The 25HC3S solution was ready-to-use at the start of dosing. Both the vehicle and 25HC3S solution were stored at room temperature. Before dosing, the 25HC3S solution was confirmed to be clear and void of any precipitation. Otherwise, if precipitation was observed, the solution was to be sonicated at room temperature for 10 minutes to dissolve particulates.
# The CLP procedure is an established and widely-used approach to investigate the progression and characteristics of clinical sepsis. On the day of surgery, animals were weighed and monitored for their baseline temperature. Animals were anesthetized with isoflurane and depth of anesthesia was checked by toe-pinching. Dipyrone (an analgesic) was given subcutaneously prior to surgery. […]
# Rats were monitored for survival for 3 days after CLP surgery and 25HC3S treatment. […]
# Animals were monitored for mortality, “clinical signs” and pain level. […]
# [2] = Solubility of 25HC3S in water as function of HPbCD or SBECD concentration at room temperature; assay type: physicochemical; details: for 25HC3S Solubility / Molar of 25HC3S: room temperature
# Protocol: A total of six suspensions of 25HC3S sodium salt were prepared in water containing 0, 50, 100, 200, 250 and 400 mg/mL hydroxypropyl-β-cyclodextrin (HPbCD, hydroxypropyl betadex) or sulfobutyl ether β-cyclodextrin (SBECD, Captisol®). Both cyclodextrins are used in approved pharmaceutical products and are manufactured as Good Manufacturing Practice (GMP) excipients. Each suspension was agitated at room temperature, aliquots were centrifuged, and the supernatant solutions assayed for 25HC3S concentrations by a reverse phase HPLC method. The solubility data of 25HC3S as a function of HPbCD concentrations is in Table 1 and as a function of SBECD concentrations is in Table 2.
# [3] = Solubility of 25HC3S in 10 mM sodium phosphate buffer pH 7.6 with HPbCD at 5, 15 and 25°C; assay type: physicochemical; details: 25°C/60% RH, supernatant
structure (smiles),measurement,setting,value
"C[C@H](CCCC(C)(C)O)[C@H]1CC[C@H]2[C@@H]3CC=C4C[C@@H](OS(=O)(=O)[O-])CC[C@]4(C)[C@H]3CC[C@]12C.[Na+] [25HC3S, 5-cholesten-3, 25-diol, 3-sulfate]",rats that had died,[1],60%
same,25HC3S Solubility,[2]; 50 mg/mL HPbCD in water,9.78 mg/mL
same,Molar of 25HC3S,[2]; 50 mg/mL HPbCD in water,0.01938 Molar
same,25HC3S Solubility,[2]; 50 mg/mL SBECD in water,6.03 mg/mL
same,Molar of 25HC3S,[2]; 50 mg/mL SBECD in water,0.01195 Molar
same,25HC3S Solubility,[2]; 100 mg/mL HPbCD in water,18.44 mg/mL
same,Molar of 25HC3S,[2]; 100 mg/mL HPbCD in water,0.03654 Molar
same,25HC3S Solubility,[2]; 100 mg/mL SBECD in water,9.86 mg/mL
same,Molar of 25HC3S,[2]; 100 mg/mL SBECD in water,0.01954 Molar
same,25HC3S Solubility,[2]; 200 mg/mL HPbCD in water,31.97 mg/mL
same,Molar of 25HC3S,[2]; 200 mg/mL HPbCD in water,0.06334 Molar
same,25HC3S Solubility,[2]; 200 mg/mL SBECD in water,21.24 mg/mL
same,Molar of 25HC3S,[2]; 200 mg/mL SBECD in water,0.04208 Molar
same,25HC3S Solubility,[2]; 250 mg/mL HPbCD in water,42.37 mg/mL
same,Molar of 25HC3S,[2]; 250 mg/mL HPbCD in water,0.08395 Molar
same,25HC3S Solubility,[2]; 400 mg/mL HPbCD in water,66 mg/mL and 65.18 mg/mL
same,Molar of 25HC3S,[2]; 400 mg/mL HPbCD in water,0.1291 Molar
same,25HC3S Solubility,[2]; 400 mg/mL SBECD in water,44.76 mg/mL
same,Molar of 25HC3S,[2]; 400 mg/mL SBECD in water,0.08869 Molar
same,relative amounts of HPbCD needed to solubilize 25HC3S (ratio),"[2]; mg/mL basis, water",6 to 1
same,25HC3S Solubility,"[2]; water, 0 mg/mL cyclodextrin",0.14 mg/mL
same,Molar of 25HC3S,"[2]; water, 0 mg/mL cyclodextrin",0.00028 Molar
same,pH of Filtrate Day 3,[3]; HPbCD 0 mg/mL,7.532
same,pH of Filtrate Day 3,[3]; HPbCD 250 mg/mL,7.842
